Data reported in patent publication US11554154B2, “Polygala extract for the treatment of major depressive disorder” (priority 2020, dated 2023).

System: tetrabenazine-induced hypothermia
Test: In vivo tetrabenazine-induced hypothermia test
Settings: oral gavage 60 minutes before TBZ i.p.; ICR male mice
Protocol: FIG. 1 depicts in vivo tetrabenazine-induced hypothermia test. Imipramine (positive control), PDC-1421, 1st Fraction 10-19, 1st Fraction 33, 2nd Fraction-1 (the major components are polygalatenosides A/B/C), 2nd Fraction-3, TMCA, Polygalaxanthone III, Onjisaponin B, Sibiricose A5, 7-O-Methylmangiferin and Sibiricaxanthone B are administered as test substances and the temperature recovery (%) is documented as shown in figure. The around 70% of PDC-1421 in Example 1 are composed of sucroester (34%), saponin (18%) and xanthone (17%). Some active compounds of powder product in Example 1, polygalatenosides A/B/C (2nd fraction 1), ploygalaxanthone III, sibiricoses A5, and 7-O-methylmangiferin are also discovered through in vivo tetrabenazine-induced hypothermia test (one of rodent models for evaluating antidepressant-like activity in mice). Imipramine (positive control), PDC-1421, 1st Fraction 10-19, 1st Fraction 33, 2nd Fraction-1 (the major components are polygalatenosides A/B/C), 2nd Fraction-3, TMCA, Polygalaxanthone III, Onjisaponin B, Sibiricose A5, 7-O-Methylmangiferin and Sibiricaxanthone B were dissolved in water for injection (WFI) and administered by oral gavage. The dosing volume was 10 mL/kg. Test substances and vehicle (WFI) were administered by oral gavage to groups of 8 ICR male mice weighing 23±3 g 60 minutes before intraperitoneal injection of tetrabenazine (TBZ, 85 ma/kg). Body temperature was recorded before (0 min), and 60, 90 and 120 min after TBZ challenge.

With `COc1cc2c(=O)c3c(O)c([C@@H]4O[C@H](CO[C@@H]5OC[C@](O)(CO)[C@H]5O)[C@@H](O)[C@H](O)[C@H]4O)c(O)cc3oc2cc1O` [ploygalaxanthone III] the “activity in tetrabenazine-induced hypothermia test (temperature recovery)” value (shortened to “activity”) was “active”.

`COc1cc2c(=O)c3c(O)c([C@@H]4O[C@H](CO)[C@@H](O)[C@H](O)[C@H]4O)c(O)cc3oc2cc1O` [7-O-methylmangiferin] was tested, and the “activity” value was “active”.

`COc1cc(/C=C/C(=O)O[C@H]2[C@H](O)[C@@H](CO)O[C@@]2(CO)O[C@H]2O[C@H](CO)[C@@H](O)[C@H](O)[C@H]2O)ccc1O` [sibiricoses A5] was tested, and the “activity” value was “active”.
